Experimental data: PubChem BioAssay AID1259408 (Genetic Toxicology Data Bank (GENE-TOX), 2018)
Active and inactive are the calls of the source. How the calls were made is not given here.

System: GENE-TOX genotoxicity assays, various organisms and cells
Test: GENE-TOX mutagenicity studies
Conditions: for call: Assay Type: In vivo carcinogenicity studies
Description: GENE-TOX provides genetic toxicology (mutagenicity) test data from expert peer review of open scientific literature for more than 3,000 chemicals from the United States Environmental Protection Agency (EPA). GENE-TOX was established to select assay systems for evaluation, review data in the scientific literature, and recommend proper testing protocols and evaluation procedures for these systems.
GENE-TOX covers the years 1991 - 1998. It is no longer updated.
This is an archive assay for GENE-TOX mutagenicity studies.

[1] = Species/Cell Type: Saccharomyces cerevisiae, Assay Type: Mitotic recombination or gene conversion, Assay Code: YEC-, Evaluation Type: Evaluation A (Pre-1980)
[2] = Species/Cell Type: Salmonella typhimurium (one or more of the five standard strains: TA98, TA100, TA1535, TA1537, and TA1538), Assay Type: Histidine reverse gene mutation, Ames assay, Assay Code: SAL+, Evaluation Type: Evaluation A (Pre-1980)
[3] = Species/Cell Type: Drosophila melanogaster, Assay Type: Sex-linked recessive lethal gene mutation, Assay Code: SRLT, Evaluation Type: Evaluation A (Pre-1980)
[4] = Species/Cell Type: Human, Assay Type: Sister-chromatid exchange (SCE) in vitro, Assay Code: SC1+, Evaluation Type: Evaluation B (Post-1980)
[5] = Species/Cell Type: Nonhuman, Assay Type: Sister-chromatid exchange (SCE) in vitro, Assay Code: SC2+D, Dose Response: With dose response, Evaluation Type: Evaluation B (Post-1980)
[6] = Species/Cell Type: Drosophila melanogaster, Assay Type: Sex-linked recessive lethal gene mutation, Assay Code: SRL+, Evaluation Type: Evaluation A (Pre-1980)
[7] = Species/Cell Type: Salmonella typhimurium (one or more of the five standard strains: TA98, TA100, TA1535, TA1537, and TA1538), Assay Type: Histidine reverse gene mutation, Ames assay, Assay Code: SALT, Evaluation Type: Evaluation A (Pre-1980)
[8] = Species/Cell Type: Nonhuman, Assay Code: CCG+, Evaluation Type: Evaluation A (Pre-1980)

CCNc1nc(NC(C)C)nc(SC)n1
mutagenic call [1]: inactive; negative

O=S1(=O)OC2(c3ccccc31)c1cc(Br)c(O)c(Br)c1Oc1c2cc(Br)c(O)c1Br
mutagenic call [2]: active; positive

CC1CN(N=O)C(=O)NC1=O (stereo not given)
mutagenic call [2]: active; positive

c1c(N2CC2)nc(N2CC2)nc1N1CC1
mutagenic call (Species/Cell Type: Aspergillus nidulans, Assay Type: Reverse gene mutation, Assay Code: ASR+, Evaluation Type: Evaluation A (Pre-1980)): active; positive

CN(CCC(=O)OC[C@H](N)C(=O)O)N=O
mutagenic call (Species/Cell Type: Escherichia coli polA (W3110 vs P3478), Assay Type: Rec-assay, DNA effects (bacterial DNA repair), Assay Code: RE2+, Evaluation Type: Evaluation A (Pre-1980)): active; positive | mutagenic call (Species/Cell Type: Escherichia coli polA (W3119 vs P3478), Assay Type: Rec-assay, DNA effects (bacterial DNA repair), Assay Code: RE1T, Evaluation Type: Evaluation A (Pre-1980)): no conclusion

O=c1ccn([C@H]2C[C@H](O)[C@@H](COP(=O)(O)O)O2)c(=O)[nH]1
mutagenic call [3]: no conclusion

N#CC(Cl)Cl
mutagenic call (Species/Cell Type: Saccharomyces cerevisiae, Assay Type: Mitotic recombination or gene conversion, Assay Code: YEH+, Evaluation Type: Evaluation A (Pre-1980)): active; positive | mutagenic call [2]: active; positive

Nc1ncnc2c1ncn2[C@@H]1O[C@H](CO[C@H]2[C@H](O)[C@@H](O)[C@@H](O[C@@H](C(=O)O)[C@H](O)[C@H](OP(=O)(O)O)[C@H](O)C(=O)O)O[C@@H]2CO)[C@@H](O)[C@H]1O
mutagenic call (Species/Cell Type: Plant, Assay Type: Micronucleus test, chromosome aberrations, Assay Code: MNP+, Evaluation Type: Evaluation A (Pre-1980)): active; positive

OCn1cnc2ccccc21
mutagenic call (Species/Cell Type: Arabidopsis species, Assay Type: Gene mutation, Assay Code: ARM-, Evaluation Type: Evaluation A (Pre-1980)): inactive; negative

Nc1cc2c(cn1)[nH]c1ccccc12
mutagenic call [4]: active; positive | mutagenic call [5]: active; positive

[N-]=[N+]=[N-]
mutagenic call (Species/Cell Type: Arabidopsis species, Assay Type: Gene mutation, Assay Code: ARMT, Evaluation Type: Evaluation A (Pre-1980)): no conclusion | mutagenic call [6]: active; positive | mutagenic call (Species/Cell Type: Escherichia coli WP2, Assay Type: Tryptophan reverse gene mutation, Assay Code: WP2T, Evaluation Type: Evaluation A (Pre-1980)): no conclusion | mutagenic call (Species/Cell Type: Escherichia coli WP2 UVRA, Assay Type: Tryptophan reverse gene mutation, Assay Code: WPU-, Evaluation Type: Evaluation A (Pre-1980)): inactive; negative | mutagenic call (Species/Cell Type: Glycine max (soybean), Assay Type: Gene mutation, Assay Code: GLM+, Evaluation Type: Evaluation A (Pre-1980)): active; positive | mutagenic call (Species/Cell Type: Hordeum vulgare (barley), Assay Type: Gene mutation, Assay Code: HOM+, Evaluation Type: Evaluation A (Pre-1980)): active; positive | mutagenic call (Species/Cell Type: Human diploid fibroblasts, Assay Type: Unscheduled DNA synthesis (UDS) in vitro, DNA effects, Assay Code: UDH-, Evaluation Type: Evaluation A (Pre-1980)): inactive; negative | mutagenic call (Species/Cell Type: Human lymphocytes or leukocytes, Assay Type: Chromosome aberrations in vitro, Assay Code: CY7-, Evaluation Type: Evaluation A (Pre-1980)): inactive; negative | mutagenic call (Species/Cell Type: Human lymphocytes, Assay Type: Sister-chromatid exchange (SCE) in vitro, Assay Code: SCL+, Evaluation Type: Evaluation B (Post-1980)): active; positive | mutagenic call [4]: active; positive | mutagenic call (Species/Cell Type: Mouse lymphoma (L5178Y) cells, Assay Type: Forward gene mutation at the thymidine kinase (TK) locus, chromosome aberrations, Assay Code: L51+, Evaluation Type: Evaluation A (Pre-1980)): active; positive | mutagenic call (Species/Cell Type: Mouse, Sex: Male, Assay Type: Sperm morphology, Assay Code: SPI-, Evaluation Type: Evaluation A (Pre-1980)): inactive; negative | call (Species/Cell Type: Nonhuman, Assay Code: CCGT, Evaluation Type: Evaluation A (Pre-1980)): no conclusion | mutagenic call (Species/Cell Type: Saccharomyces cerevisiae, Assay Type: Forward gene mutation, Assay Code: YEF+, Evaluation Type: Evaluation A (Pre-1980)): active; positive | mutagenic call (Species/Cell Type: Saccharomyces cerevisiae, Assay Type: Mitotic recombination or gene conversion, Assay Code: YEC+, Evaluation Type: Evaluation A (Pre-1980)): active; positive | mutagenic call (Species/Cell Type: Saccharomyces cerevisiae, Assay Type: Reverse gene mutation, Assay Code: YER+*, Activation: With metabolic activation, Evaluation Type: Evaluation A (Pre-1980)): active; positive | mutagenic call [2]: active; positive | mutagenic call (Species/Cell Type: Tradescantia species, Assay Type: Chromosome aberrations, Assay Code: TRC+D, Dose Response: With dose response, Evaluation Type: Evaluation A (Pre-1980)): active; positive | mutagenic call (Species/Cell Type: Tradescantia species, Assay Type: Gene mutation, Assay Code: TRM+D, Dose Response: With dose response, Evaluation Type: Evaluation A (Pre-1980)): active; positive | mutagenic call (Species/Cell Type: Zea mays (corn), Assay Type: Gene mutation, Assay Code: ZEM+D, Dose Response: With dose response, Evaluation Type: Evaluation A (Pre-1980)): active; positive

CC1(C)S[C@@H]2[C@H](NC(=O)Cc3ccccc3)C(=O)N2[C@H]1C(=O)O
mutagenic call [3]: no conclusion | mutagenic call (Species/Cell Type: Salmonella typhimurium (one or more of the five standard strains: TA98, TA100, TA1535, TA1537, and TA1538), Assay Type: Histidine reverse gene mutation, Ames assay, Assay Code: SAL-, Evaluation Type: Evaluation A (Pre-1980)): inactive; negative

COc1cc(Cc2cnc(N)nc2N)cc(OC)c1OC
mutagenic call (Species/Cell Type: Neurospora crassa, Assay Type: Aneuploidy, chromosome aberrations, Assay Code: NEN+, Evaluation Type: Evaluation A (Pre-1980)): active; positive | mutagenic call (Species/Cell Type: Nonhuman, Assay Type: Sister-chromatid exchange (SCE) in vitro, Assay Code: SC2+, Evaluation Type: Evaluation B (Post-1980)): active; positive

NOS(=O)(=O)O
mutagenic call (Species/Cell Type: Escherichia coli polA (W3119 vs P3478), Assay Type: Rec-assay, DNA effects (bacterial DNA repair), Assay Code: RE1+, Evaluation Type: Evaluation A (Pre-1980)): active; positive

CCCCCCCCCCCCCC(=O)ON(C(=O)CCCCCCCCCCCCC)c1ccc2c(c1)Cc1ccccc1-2
mutagenic call (Species/Cell Type: Human diploid fibroblasts, Assay Type: Unscheduled DNA synthesis (UDS) in vitro, DNA effects, Assay Code: UDH+, Evaluation Type: Evaluation A (Pre-1980)): active; positive | mutagenic call [7]: no conclusion

CN=[N+](C)[O-]
mutagenic call [6]: active; positive | mutagenic call (Species/Cell Type: Mouse (BALB/c-3T3) cells, Assay Type: Cell transformation, Assay Code: CTB-, Evaluation Type: Evaluation A (Pre-1980)): inactive; negative | call [8]: active; positive | mutagenic call (Species/Cell Type: Salmonella typhimurium (one or more of the five standard strains: TA98, TA100, TA1535, TA1537, and TA1538), Assay Type: Histidine reverse gene mutation, Ames assay, Assay Code: SAL+*, Activation: With metabolic activation, Evaluation Type: Evaluation A (Pre-1980)): active; positive | mutagenic call (Species/Cell Type: Salmonella typhimurium, Assay Type: Forward and reverse gene mutation, host-mediated assay, Assay Code: HMA+, Evaluation Type: Evaluation A (Pre-1980)): active; positive

C=CCn1c(=O)n(C)c2c(=O)n(C)c(=O)n(C)c21
mutagenic call (Species/Cell Type: Allium cepa, Assay Type: Chromosome aberrations, Assay Code: ALC+D, Dose Response: With dose response, Evaluation Type: Evaluation A (Pre-1980)): active; positive

C=CC(OC(C)=O)c1ccccc1 (stereo not given)
mutagenic call [7]: no conclusion

CNC(=O)Nc1nc2ccccc2s1
mutagenic call [1]: inactive; negative

COc1ccc(N)c2c1C(=O)c1ccccc1C2=O
mutagenic call [2]: active; positive

CC1=C(C(C)O)c2cc3nc(cc4[nH]c(cc5[nH]c(cc1n2)c(C)c5CCC(=O)O)c(CCC(=O)O)c4C)C(C(C)O)=C3C (stereo not given)
mutagenic call (Species/Cell Type: Human, Assay Type: Sister-chromatid exchange (SCE) in vitro, Assay Code: SC1T, Evaluation Type: Evaluation B (Post-1980)): no conclusion

CC(=O)ON(C)c1ccc(N=Nc2ccccc2)cc1
mutagenic call [2]: active; positive

O=C[C@H](O)[C@@H](O)[C@H](O)[C@H](S)CO
mutagenic call (Species/Cell Type: Rodents, Sex: Male, Assay Type: Dominant lethal test, Assay Code: DLT-, Evaluation Type: Evaluation A (Pre-1980)): inactive; negative

Nc1ccc(Cl)c(N)c1
call [8]: active; positive

S=[Se]=S
call [8]: active; positive

[O-]/[N+](=N\O)c1ccccc1
call [8]: active; positive | mutagenic call (Species/Cell Type: Vicia faba, Assay Type: Chromosome aberrations, Assay Code: VIC+, Evaluation Type: Evaluation A (Pre-1980)): active; positive

O=[N+]([O-])c1ccc2ccc3c4ccccc4cc4ccc1c2c43
mutagenic call (Species/Cell Type: Chinese hamster ovary (CHO) cells, Assay Type: Forward gene mutation at the HPRT locus, Assay Code: CHO+*, Activation: With metabolic activation, Evaluation Type: Evaluation B (Post-1980)): active; positive

CCN(CC)CCNc1ccc(C(=O)O)c2sc3ccccc3c(=O)c12
mutagenic call (Species/Cell Type: Fischer rat embryo (RLV/1706) cells, Assay Type: Cell transformation, viral enhanced, Assay Code: CTR+, Evaluation Type: Evaluation A (Pre-1980)): active; positive

CO[C@@H]1CC(O[C@H]2CC[C@@]3(C=O)[C@](O)(CC[C@]4(C)[C@]3(C)CC[C@]3(C)[C@@H](C5=CC(=O)OC5)CC[C@@]43O)C2)O[C@H](C)C1O[C@H]1C[C@@H](CO)[C@H](O)[C@@H](O)[C@@H]1O (stereo not given in full)
mutagenic call (Species/Cell Type: Nonhuman, Assay Type: Sister-chromatid exchange (SCE) in vitro, Assay Code: SC2-, Evaluation Type: Evaluation B (Post-1980)): inactive; negative

O[C@H]1C=Cc2cc3c4ccccc4c4ccccc4c3cc2[C@@H]1O
mutagenic call [5]: active; positive
